{"source": "paper PMC7181131", "about": "“N-Pyrazinoyl Substituted Amino Acids as Potential Antimycobacterial Agents—the Synthesis and Biological Evaluation of Enantiomers” (Molecules, 2020)", "key": {"[1]": {"tested_on": "Mtb H37Ra ITM-M006710 (ATCC 9431)", "test": "Microplate Alamar Blue Assay (MABA) microdilution, Mtb H37Ra", "format": "cell-based, Mycobacterium tuberculosis", "details": "for MIC: Mycobacterium tuberculosis"}, "[2]": {"tested_on": "M. smegmatis DSM 43465 (ATCC 607)", "test": "Microplate Alamar Blue Assay (MABA) microdilution, M. smegmatis", "format": "cell-based, Mycobacterium smegmatis"}, "[3]": {"tested_on": "Mycobacterium aurum DSM 43999 (ATCC 23366)", "test": "Microplate Alamar Blue Assay (MABA) microdilution, M. aurum", "format": "cell-based"}, "HepG2 cell line [4]": {"tested_on": "HepG2 cell line", "test": "HepG2 cytotoxicity, CellTiter 96 (MTS) assay", "format": "cell-based, human", "details": "24 h incubation, CellTiter 96"}, "[5]": {"tested_on": "Staphylococcus epidermidis CCM 4418 (ATCC 12228)", "test": "Antibacterial microdilution broth method, SE", "format": "cell-based", "details": "24 h, read-out: MIC SE"}, "[6]": {"tested_on": "Candida albicans CCM 8320 (ATCC 24433)", "test": "Antifungal microdilution broth method, CA", "format": "cell-based", "details": "24 h, read-out: MIC CA"}, "[7]": {"tested_on": "Candida krusei CCM 8271 (ATCC 6258)", "test": "Antifungal microdilution broth method, CK", "format": "cell-based", "details": "Pichia kudriavzevii, 24 h, read-out: MIC CK"}, "[8]": {"tested_on": "Candida parapsilosis CCM 8260 (ATCC 22019)", "test": "Antifungal microdilution broth method, CP", "format": "cell-based", "details": "Lodderomyces parapsilosis, 24 h, read-out: MIC CP"}, "[9]": {"tested_on": "Candida tropicalis CCM 8264 (ATCC 750)", "test": "Antifungal microdilution broth method, CT", "format": "cell-based", "details": "24 h, read-out: MIC CT"}, "[10]": {"tested_on": "Aspergillus fumigatus ATCC 204305", "test": "Antifungal microdilution broth method, AF", "format": "cell-based", "details": "ATCC204305, 48 h, read-out: MIC AF"}, "[11]": {"tested_on": "Aspergillus flavus CCM 8363", "test": "Antifungal microdilution broth method, AFla", "format": "cell-based", "details": "CCM8363, read after 48 h (filamentous fungi), read-out: MIC AFla"}, "[12]": {"tested_on": "Lichtheimia corymbifera CCM 8077", "test": "Antifungal microdilution broth method, LC", "format": "cell-based", "details": "CCM8077, 48 h, read-out: MIC LC"}, "[13]": {"tested_on": "Trichophyton interdigitale CCM 8377 (ATCC 9533)", "test": "Antifungal microdilution broth method, TI", "format": "cell-based", "details": "48 h, read-out: MIC TI"}, "some G- bacteria": {"tested_on": "some G- bacteria", "test": "Antibacterial microdilution broth method, strains not given", "format": "cell-based", "details": "read-out: MIC against some G- bacteria"}, "[14]": {"tested_on": "Klebsiella pneumoniae CCM 4415 (ATCC 10031)", "test": "Antibacterial microdilution broth method, KP", "details": "read after 24 h of incubation"}, "HepG2 cell line [15]": {"tested_on": "HepG2 cell line", "design": "method as in PMID 23357778", "details": "converted to µM based on the literature value 1184.3 ± 120.2 µg/mL ref 62; cited from earlier work"}, "[16]": {"details": "pH 6.6, read-out: MIC Mtb H37Ra"}, "[17]": {"details": "pH 6, calculated from µg/mL, read-out: MIC Mtb H37Ra"}}, "note": "pIC50: −log10 of the molar value. Like-named read-outs stand apart in the source and are kept apart here.", "data": [{"smiles": "CCOC(=O)[C@H](C)NC(=O)c1cnccn1", "note": "[PC-L-Ala-Et, ethyl (pyrazine-2-carbonyl)-L-alaninate]", "values": [{"measurement": "times lower MIC of the ethyl ester compared to the free acid", "setting": "[1]; Mtb H37Ra, pH 6, PC-L-Ala-Et vs PC-L-Ala", "result": "at least 64 times"}, {"measurement": "MIC", "setting": "[1]; pH 6", "result": 3.91, "unit": "µg/mL"}, {"measurement": "MIC", "setting": "[1]; pH 6, read-out: MIC Mtb H37Ra", "result": 3.91, "unit": "µg/mL"}, {"measurement": "MIC", "setting": "[1]; [16]", "result": "≥ 500", "unit": "µg/mL"}, {"measurement": "MIC", "setting": "[1]; pH 6, Table 4, read-out: Mtb pH 6 MIC", "result": 18, "unit": "µM"}, {"measurement": "MIC", "setting": "[1]; [17]", "result": 17.5, "unit": "µM"}, {"measurement": "MIC", "setting": "[2]; Mycolicibacterium smegmatis, pH 6, read-out: MIC M. smegmatis µg/mL", "result": "≥ 125", "unit": "µg/mL"}, {"measurement": "MIC", "setting": "[2]; Mycolicibacterium smegmatis, pH 6.6, read-out: MIC M. smegmatis", "result": "≥ 500", "unit": "µg/mL"}, {"measurement": "MIC", "setting": "[3]; Mycolicibacterium aurum, pH 6, read-out: MIC M. aurum µg/mL", "result": "≥ 125", "unit": "µg/mL"}, {"measurement": "MIC", "setting": "[3]; Mycolicibacterium aurum, pH 6.6, read-out: MIC M. aurum", "result": "≥ 500", "unit": "µg/mL"}, {"measurement": "HepG2 IC50", "setting": "HepG2 cell line [4]", "result": "above the tested range"}, {"measurement": "pIC50", "setting": "HepG2 cell line [4]; Homo sapiens, HepG2, read-out: HepG2 IC50", "result": "< 3.00"}, {"measurement": "MIC", "setting": "[5]", "result": 250, "unit": "µM"}, {"measurement": "MIC", "setting": "[6]", "result": "> 500", "unit": "µM"}, {"measurement": "MIC", "setting": "[7]", "result": "> 500", "unit": "µM"}, {"measurement": "MIC", "setting": "[8]", "result": "> 500", "unit": "µM"}, {"measurement": "MIC", "setting": "[9]", "result": "> 500", "unit": "µM"}, {"measurement": "MIC", "setting": "[10]", "result": "> 500", "unit": "µM"}, {"measurement": "MIC", "setting": "[11]", "result": "> 500", "unit": "µM"}, {"measurement": "MIC", "setting": "[12]", "result": "> 500", "unit": "µM"}, {"measurement": "MIC", "setting": "[13]", "result": 500, "unit": "µM"}, {"measurement": "MIC", "setting": "some G- bacteria", "result": 125, "unit": "µM"}, {"measurement": "MIC KP", "setting": "[14]", "result": "> 500", "unit": "µM"}]}, {"smiles": "NC(=O)c1cnccn1", "note": "[PZA, pyrazinamide, reference compound]", "values": [{"measurement": "MIC", "setting": "[1]; pH 6, read-out: Mtb pH 6 MIC", "result": 31.8, "unit": "µM"}, {"measurement": "MIC", "setting": "[1]; pH 6, read-out: MIC Mtb H37Ra", "result": "< 3.91", "unit": "µg/mL"}, {"measurement": "MIC", "setting": "[1]; [16]", "result": "≥ 500", "unit": "µg/mL"}, {"measurement": "MIC", "setting": "[1]; [17]", "result": "< 31.8", "unit": "µM"}, {"measurement": "MIC", "setting": "[2]; Mycolicibacterium smegmatis, pH 6; read-out: MIC M. smegmatis", "result": "≥ 500", "unit": "µg/mL"}, {"measurement": "MIC", "setting": "[2]; Mycolicibacterium smegmatis, pH 6.6; read-out: MIC M. smegmatis", "result": "≥ 500", "unit": "µg/mL"}, {"measurement": "MIC", "setting": "[3]; Mycolicibacterium aurum, pH 6; read-out: MIC M. aurum", "result": 250, "unit": "µg/mL"}, {"measurement": "MIC", "setting": "[3]; Mycolicibacterium aurum, pH 6.6; read-out: MIC M. aurum", "result": "≥ 500", "unit": "µg/mL"}, {"measurement": "IC50", "setting": "HepG2 cell line [15]", "result": 9620, "unit": "µM"}]}]}
